Where two headings read alike, the source gives them in different places.
Experiments:
[1] = target: T1, ORL-1 receptor (Homo sapiens, UniProt P41146); test: ORL1 receptor binding assay ([3H]nociceptin); details: for Ki: calculated from IC50 and Kd of [3H]nociceptin; for IC50: membrane of human ORL-1 expression cells, [3H]nociceptin 0.5 nM
T1 construct: expressed in transfected cells
Protocol: ORL1 Receptor Binding Assay
A cell membrane suspension obtained from human ORL-1 expression cells was adjusted with Tris buffer [50 mM Tris, 2 mM EDTA, 0.1 mM (p-Amidinophenyl)methanesulfonyl Fluoride Hydrochloride (p-APMSF), 2 mg/ml BSA] to membrane protein amount of about 25 μg/ml (2.5 μg/well). This was mixed with [^3H]nociceptin (diluted with Tris buffer to a final concentration of 0.5 nM) and test compound (diluted with Tris buffer to a final concentration of 10 nM-10 μM), and the mixture was incubated at room temperature for 60 min. The membrane was recovered on a G/F-B filter (Packard, Unifilter 96GF/B) using a cell harvester and the reaction was stopped. After washing 3 times, the filter was dried at 42° C. for 1 hr. A scintillation solution (Packard, microscint-20) was added and the radioactivity (Packard, Top count A9912V) was assayed.
(§1) The nonspecific binding was the binding in the presence of 1 μM nociceptin and the difference between the total binding and nonspecific binding was taken as the specific binding. IC50 was calculated from inhibition of specific binding at each concentration of the compound, and Ki value of the test compound was calculated from this value and Kd value of [^3H]nociceptin.

[2] = tested on: allodynia model; test: Allodynia test (intrathecal nociceptin, tactile stimulation); format: in vivo, Mice; details: Mus musculus, read-out: Allodynia M.E.D. (minimum effective dose)
Protocol: Mice (Crj, ICR, 4-week-old, male) were intrathecally administered with nociceptin (50 pg/5 μl) without anesthesia. For 20 min after administration and at 5 min intervals, an area from lateral region to tail of the mice was rubbed with a brush and the response of the mice was observed. The evaluation followed the criteria of 0; no change, 1; run or cry upon tactile stimulation, and 2; cry loud or dash away upon tactile stimulation. The test compound was suspended in a 0.5% MC solution and orally administered 60 min before nociceptin administration. The significant difference of the score of each administration group at 20 min after nociceptin administration from the group administered with solvent was analyzed with Mann-Whitny U-test.

[3] = tested on: Mice; test: Hot-plate test; format: in vivo; details: Mus musculus, 1 h, oral, 60 min after administration, 55.5°C, read-out: Hot-plate M.E.D. (minimum effective dose)
Protocol: Mice (Crj, ICR, 4-week-old, male) were placed on a hot-plate (temperature 55.5±0.5° C.) and the time until the mice jumped and tried to run away was recorded. The mice were grouped according to the time and body weight so that the groups were evenly membered. The test compound was suspended in a 0.5% methylcellulose (MC) solution and orally administered to mice. After 60 min, the mice were again placed on a hot-plate and the time until they licked the hindlimb or jumped and tried to run away was recorded. The significant difference from the group administered with solvent was analyzed with ANOVA followed by Dunnett two-tailed test.

[4] = target: T2, μ receptor (Rattus norvegicus, UniProt P33535); test: μ receptor binding assay ([3H]DAMGO); details: for Ki: calculated from IC50 and Kd of [3H]DAMGO; for IC50: rat cerebrum membrane, [3H]DAMGO 1 nM
T2 construct: Rat cerebrum membrane standard sample; from tissue; host or cells: rat cerebrum membranes
Protocol: Rat cerebrum membrane standard sample (final concentration 0.755 mg·protein/ml), [^3H]DAMGO (Try-D-Ala-Gly-NMe-Phe-Gly-ol) [diluted with Tris buffer (50 mM Tris-HCl, 0.1 mM p-APMSF, 2 mg/ml BSA (pH=7.4)) to a final concentration of 1 nM] and test compound (diluted with Tris buffer to a final concentration of 10 nM-10 μM) were mixed, and the mixture was incubated at room temperature for 90 min. The membrane was recovered on a G/F-B filter (same as above) using a cell harvester and the reaction was stopped. After washing 3 times, the filter was dried at 42° C. for 1 hr. A scintillation solution (same as above) was added and the radioactivity (same as above) was assayed.
as §1, with “10” for “1”, “naloxone” for “nociceptin”, “[^3H]DAMGO.” for “[^3H]nociceptin.”

[5] = mice, oral, 60 min before nociceptin 50 pg i.t., score at 20 min

T2 sequence (P33535 whole entry): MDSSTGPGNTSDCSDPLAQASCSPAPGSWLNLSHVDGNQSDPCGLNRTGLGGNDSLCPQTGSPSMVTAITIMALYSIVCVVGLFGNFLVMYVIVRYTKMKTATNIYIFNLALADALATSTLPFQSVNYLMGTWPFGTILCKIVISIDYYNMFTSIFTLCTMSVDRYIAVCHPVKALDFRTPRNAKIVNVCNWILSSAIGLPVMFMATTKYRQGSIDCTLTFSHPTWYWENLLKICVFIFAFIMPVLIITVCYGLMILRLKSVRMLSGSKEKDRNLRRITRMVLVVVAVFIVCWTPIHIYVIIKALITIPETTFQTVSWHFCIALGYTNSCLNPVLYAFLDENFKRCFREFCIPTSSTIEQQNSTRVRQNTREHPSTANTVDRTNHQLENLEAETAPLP
T1 sequence (P41146 whole entry): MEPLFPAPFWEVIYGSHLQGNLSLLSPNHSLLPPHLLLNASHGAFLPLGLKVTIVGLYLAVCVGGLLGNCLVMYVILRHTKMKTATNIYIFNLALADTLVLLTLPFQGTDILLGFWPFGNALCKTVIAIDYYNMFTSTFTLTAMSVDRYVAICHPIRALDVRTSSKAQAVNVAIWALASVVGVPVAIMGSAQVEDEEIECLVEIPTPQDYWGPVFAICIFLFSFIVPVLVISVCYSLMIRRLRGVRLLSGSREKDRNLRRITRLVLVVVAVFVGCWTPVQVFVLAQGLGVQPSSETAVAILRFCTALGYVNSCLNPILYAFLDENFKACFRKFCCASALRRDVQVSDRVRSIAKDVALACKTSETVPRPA

Ki [1]	IC50 [1]	melting point	Ki [4]	IC50 [4]	Compound	minimal effective dose [2, 5]	minimal effective dose [3]	minimal effective dose ([2]; po)
0.009 µM	0.16 µM	268 °C	0.414 µM	1.05 µM	Cc1cc(N)c2cc(NC(=O)c3ccccc3COc3ccc(C(C)(C)C)cc3)ccc2n1.Cl [Example 29, N-(4-amino-2-methyl-6-quinolyl)-2-[(4-tert-butylphenoxy)methyl]benzamide hydrochloride]	> 0.3 mg/kg	3 mg/kg	–
0.006 µM	0.13 µM	245.9 °C	0.548 µM	1.46 µM	CCc1ccc(OCc2ccccc2C(=O)Nc2ccc3nc(C)cc(N)c3c2)c(Cl)c1.Cl [Example 89, N-(4-amino-2-methyl-6-quinolyl)-2-[(2-chloro-4-ethylphenoxy)methyl]benzamide hydrochloride]	0.3 mg/kg	1 mg/kg	–
0.009 µM	0.16 µM	245 °C	0.388 µM	1.03 µM	Cc1cc(N)c2cc(NC(=O)c3ccccc3COc3cccc([N+](=O)[O-])c3)ccc2n1.Cl [Example 19, N-(4-amino-2-methyl-6-quinolyl)-2-[(3-nitrophenoxy)methyl]benzamide hydrochloride]	0.1 mg/kg	3 mg/kg	–
0.008 µM	0.16 µM	270 °C	0.254 µM	0.67 µM	CC(=O)c1ccc(OCc2ccccc2C(=O)Nc2ccc3nc(C)cc(N)c3c2)cc1.Cl [Example 12, N-(4-amino-2-methyl-6-quinolyl)-2-[(4-acetylphenoxy)methyl]benzamide hydrochloride]	0.3 mg/kg	3 mg/kg	–
0.003 µM	0.06 µM	245 °C	0.424 µM	1.12 µM	Cc1cc(N)c2cc(NC(=O)c3ccccc3COc3ccc(Cl)cc3)ccc2n1.Cl [Example 11, N-(4-amino-2-methyl-6-quinolyl)-2-[(4-chlorophenoxy)methyl]benzamide hydrochloride]	0.3 mg/kg	3 mg/kg	–

Compound	Ki [1]	IC50 [1]	melting point	Ki [4]	IC50 [4]	minimal effective dose [2, 5]	minimal effective dose [3]	minimal effective dose ([2]; po)
Cc1ccc(OCc2ccccc2C(=O)Nc2ccc3nc(C)cc(N)c3c2)cc1.Cl [Example 17, N-(4-amino-2-methyl-6-quinolyl)-2-[(4-methylphenoxy)methyl]benzamide hydrochloride]	–	0.13 µM	255 °C	0.385 µM	1.02 µM	–	1 mg/kg	0.3 mg/kg

Reference: patent US6410561B1, “Amide derivatives and nociceptin antagonists” (Japan Tobacco Inc., priority 1998, dated 2002)
